{"source": "patent US20200384072A1", "about": "“THERAPY OF IONIZING RADIATION-INDUCED DISORDERS” (SCK-CEN, priority 2019, published 2020)", "key": {"TICAE cells": {"system": "TICAE cells", "assay": "Scrape loading and dye transfer (SLDT), gap junctional coupling after irradiation, TICAE cells", "type": "cell-based, human", "conditions": "Carbenoxolone 50 μM, single 0.1 or 5 Gy, 6 h and 72 h p.i.", "description": "(§1) The scrape loading and dye transfer assay (SLDT) was used to assess gap junctional function after IR exposure. TICAE and TIME cells were seeded in a 24-well plate at a density of 1×10^5 cells/well in four to six biological replicates. Three days later, cells reached 100% confluence and the medium was refreshed before irradiation with 1 ml/well for single irradiation experiment and 1.5 ml for fractionated irradiation experiment. At different time points after irradiation (6 and 72 h post single irradiation, or 72 h post fractionated irradiation) the cells were washed 3 times with a scrape loading and dye transfer (SLDT) buffer (137 mM NaCl, 5.36 mM KCl, 0.81 mM MgCl2, 5.55 mM […], 25 mM HEPES, pH 7.4). Then, the cells were incubated with a SLDT solution composed of SLDT buffer and 400 μM 6-carboxyfluorescein (6-CF, 0.376 kDa) (Sigma-Aldrich Co. LCC, Diegem, Belgium) for one minute. A vertical scratch was made in the middle of each well, using a 20G needle (Becton Dickinson, Erembodegem, Belgium). After another one minute incubation, the cells were washed 6 times with HMS supplemented with 25 mM HEPES (Sigma-Aldrich Co. LCC, Diegem, Belgium). […] The relative area of 6-CF transfer was calculated using FIJI software. By analyzing the area of the dye diffusion from the first line of cells to adjacent cells, the gap junctional coupling was determined."}, "RBE4 cells [1]": {"system": "RBE4 cells", "assay": "Cytosolic Ca2+ imaging after medium transfer from irradiated to recipient RBE4 cells", "type": "cell-based, rat", "description": "Cells were seeded on glass coverslips (18 mm 0) coated with 3.5 μg/cm^2 Corning cell-tak (VWR, Leuven, Belgium) and ester loaded for 45 min with 10 μM Fluo-3-AM in HBSS-HEPES supplemented with 1 mM of probenecid and 0.01% of pluronic F127 at room temperature followed by de-esterification over 15 min. Imaging was performed using an inverted fluorescence microscope equipped with a ×40 oil immersion objective and an EM-CCD camera (QuantEM™ 512SC CCD camera, Photometrics, Tucson, Ariz.). For direct Ca^2+ measurements the loaded cells were irradiated and transferred to the microscopy stage. For medium transfer, the loaded cells were superfused for 1 min with HBSS-Hepes (1 mM), followed by 4 min with HBSS-Hepes conditioned by irradiated cultures. Fluorescence intensity changes in the cells were analyzed with custom-developed FluoFrames software (L. Leybaert, Ghent, Belgium). Ca^2+ changes were quantified as the area under the curve (AUC) of the Ca^2+ traces."}, "TIME cells": {"system": "TIME cells", "assay": "Scrape loading and dye transfer (SLDT), gap junctional coupling after irradiation, TIME cells", "type": "cell-based, human", "conditions": "Carbenoxolone 50 μM, single 0.1 or 5 Gy, 6 h and 72 h p.i.", "description": "as §1"}, "[2]": {"system": "primary brain microvascular endothelial cells (pBMECs)", "assay": "γ-H2AX counts after local 3×3 mm X-ray irradiation (irradiated and bystander zones), pBMECs", "type": "cell-based, mouse", "conditions": "1 Gy, 3 h post-irradiation", "description": "Cortices, from 10-12 week old mice, were isolated by removing cerebellum, striatum, optic nerves, brain white matter, outer vessels and meninges. After homogenization with a Dounce homogenizer in WBB (Washing Buffer B: HMS, 10 mM Hepes, 0.35 g/L NaHCO3, 0.1% BSA), the homogenate was mixed with 30% dextran in WBB and centrifuged at 3000×g for 25 min at 4° C. The pellet containing the vascular component was then resuspended in WBB and filtered through a 60 μm NY60 Nylon Net Filter (Millipore, Darmstadt, Germany). Following centrifugation at 1000×g for 7 min at room temperature, the pellet was digested in collagenase/dispase supplement with DNase I (Roche Diagnostics, Vilvoorde, Belgium) and TLCK (Tosyl, Lysin chloromethyl ketone, sigma-aldrich) for 33 min at 37° C. in a shaking water bath. The digested capillary suspension was then seeded after multiple washing steps on wells coated with matrigel or glass coated with Corning Cell-Tak (VWR, Leuven, Belgium). For the isolation of intact capillaries the protocol was aborted just before the digestion step.\n(§2) A defined area of the cell culture dishes were exposed to X-rays (1Gy or 20 Gy) by using a small animal radiation research platform (SARRP, Xstrahl, 220 kV, 13 mA), making use of a 3×3 mm collimator. Whole dish irradiation was done using a 10×10 cm broad-beam collimator, while localized Irradiation was performed with a 3×3 mm collimator. A Gafchromic RTQA2 film, with a sensitivity of 0.02 Gy, was placed underneath the cell dishes in order to delineate the irradiated zone.\n(§3) Cells were fixed for 25 min with 4% formaldehyde (VWR) and blocked for 30 min with blocking buffer (5% normal goat serum, 1% bovine serum albumin (BSA), 0.2% Triton X-100 in PBS D+). Overnight incubation with primary antibody (1/500 anti-γ-H2AX in dilution buffer, 1/10 blocking buffer in PBS D+) was followed by a 1 h incubation with 1/400 XX-biotin-goat-anti-mouse antibody in dilution buffer, followed by a 1 h incubation with 1/400 streptavidin-alexa488 in PBS D+. Nuclei were stained with 1 μg/mL DAPI in PBS D+ for 10 min and cells were kept in PBS D+ supplemented with NaN3 at 4° C. All steps except the overnight incubation which was carried out at 4° C., were carried out at room temperature and cell cultures were rinsed thoroughly with PBS D+ between all incubation steps. Imaging was performed with an automated BD Pathway 435 imaging system (10× objective, 10×10 montage resulting in an overall image size of 8.5×6.5 mm). We then quantified the number of γ-H2AX-foci positive nuclei in the directly irradiated and bystander areas and expressed the count as a percentage relative to the number of nuclei and subtracted the percentage of background γ-H2AX signal in non-irradiated paired control cultures for each experiment. For counting γ-H2AX foci, images were thresholded to remove background pixel noise below the foci level. Where applicable, results were normalized against vehicle (bar charts with a 100% vehicle bar without statistical variability or a horizontal line)."}, "RBE4 cells [3]": {"system": "RBE4 cells", "assay": "γ-H2AX counts after local 3×3 mm X-ray irradiation (irradiated and bystander zones), RBE4 cells", "type": "cell-based, rat", "conditions": "1 Gy, 3 h post-irradiation, Cbx 50 μM, Gap26 161 μM, TAT-Gap19 200 μM, Xestospongin C 5 μM", "description": "as §2, §3"}, "RBE4 cells [4]": {"system": "RBE4 cells", "assay": "Irradiation-induced ATP release, RBE4 cells", "type": "cell-based, rat", "conditions": "broad-beam 1 Gy, 5 min post-irradiation, BAPTA-AM 10 μM, NALC 1 mM, c-PTIO 100 μM", "description": "ATP was measured using a luciferin-luciferase assay kit (Sigma-Aldrich) in combination with a luminometer plate reader (Victor3 1420 multi label counter; Perkin Elmer, Zaventem, Belgium).\nExtracellular ATP measurements were initially carried out at different time-points post-irradiation, the effect of blockers on ATP release was tested at the 5 min post-irradiation time-point (time of maximum ATP release)."}}, "data": [{"smiles": "CC1(C)[C@@H](OC(=O)CCC(=O)O)CC[C@]2(C)[C@H]3C(=O)C=C4[C@@H]5C[C@@](C)(C(=O)O)CC[C@]5(C)CC[C@@]4(C)[C@]3(C)CC[C@@H]12", "note": "[Carbenoxolone, carbenoxolone]", "values": [{"measurement": "6-CF dye spread (gap junctional dye coupling)", "setting": "TICAE cells", "result": "inhibited the dye spread in all cases"}, {"measurement": "AUC of Ca2+ transients in recipient bystander cells", "setting": "RBE4 cells [1]; inhibitor added to the irradiated culture 30 min before irradiation, NALC 1 mM", "result": "reduced the area under the curve (AUC)"}, {"measurement": "[Ca2+]i responses in recipient cells", "setting": "RBE4 cells [1]; inhibitor added to the recipient cells, PPADS 50 μM", "result": "inhibited the [Ca^2]i responses"}, {"measurement": "6-CF dye spread (gap junctional dye coupling)", "setting": "TIME cells", "result": "inhibited the dye spread in all cases"}, {"measurement": "γ-H2AX counts in the bystander zone (normalized to vehicle)", "setting": "[2]", "result": "significant decrease"}, {"measurement": "γ-H2AX counts in the irradiated area (normalized to vehicle)", "setting": "[2]", "result": "significant decrease"}, {"measurement": "γ-H2AX counts in the bystander zone (normalized to vehicle)", "setting": "RBE4 cells [3]", "result": "significantly inhibited"}, {"measurement": "γ-H2AX counts in the irradiated zone (normalized to vehicle)", "setting": "RBE4 cells [3]", "result": "not statistically significant"}, {"measurement": "irradiation-induced ATP release", "setting": "RBE4 cells [4]", "result": "inhibited"}]}]}
